Several values for one entry are separate records, joined by “and”; a condition that tells them apart may be missing. Identical values can stand only once.
Target: TTR in human serum (Homo sapiens, UniProt P02766)
Experiment: TTR serum fluorescent probe exclusion (FPE) selectivity assay
Format: binding
Settings: ligand 10 µM; for %FPE probe fluorescence: human serum, replicates

## Cc1n[nH]c(C)c1CCCOc1cc(C(=O)O)ccc1F [AG10, reference compound]
FPE probe 3.6 µM, 3 h reading relative to probe alone, text mean ± s.d., table replicates
  % TTR occupancy in human serum: 97.40% and 95.62% and 96.92% and 97.81%
Time 0.000 h
  %FPE probe fluorescence: 0.000%
Time 0.083 h
  %FPE probe fluorescence: 0.700% and 0.333% and 1.346% and -0.971%
Time 0.250 h
  %FPE probe fluorescence: 0.446% and 0.461% and 3.649% and -0.301%
Time 0.500 h
  %FPE probe fluorescence: -1.954% and 0.832% and 3.724% and 2.441%
Time 1.000 h
  %FPE probe fluorescence: -0.363% and 4.377% and 2.966% and 3.350%
Time 1.250 h
  %FPE probe fluorescence: 2.954% and 2.394% and 3.246% and -1.477%
Time 1.500 h
  %FPE probe fluorescence: 2.170% and 0.641% and 2.641% and 0.126%
Time 1.750 h
  %FPE probe fluorescence: 0.743% and 3.255% and 1.620% and 2.521%
Time 2.000 h
  %FPE probe fluorescence: 4.231% and 0.837% and 2.557% and 0.855%
Time 2.250 h
  %FPE probe fluorescence: 5.793% and 2.286% and 2.057% and 0.029%
Time 2.500 h
  %FPE probe fluorescence: 6.054% and 2.118% and 3.144% and 0.438%
Time 2.750 h
  %FPE probe fluorescence: 2.727% and 2.921% and 3.595% and 1.032%
Time 3.000 h
  %FPE probe fluorescence: 2.597% and 4.380% and 3.077% and 2.193%
Time 3.500 h
  %FPE probe fluorescence: 3.724% and 3.796% and 4.505% and 2.484%
Time 3.750 h
  %FPE probe fluorescence: 3.879% and 3.578% and 5.075% and 1.835%
Time 4.000 h
  %FPE probe fluorescence: 3.514% and 5.359% and 4.237% and 1.611%
Time 4.250 h
  %FPE probe fluorescence: 3.887% and 3.398% and 4.915% and 2.063%
Time 4.500 h
  %FPE probe fluorescence: 4.733% and 4.892% and 5.145% and 3.486%
Time 4.750 h
  %FPE probe fluorescence: 6.115% and 5.517% and 7.470% and 4.138%
Time 5.000 h
  %FPE probe fluorescence: 6.088% and 5.023% and 7.566% and 3.162%
Time 5.250 h
  %FPE probe fluorescence: 5.909% and 5.424% and 7.406% and 4.467%
Time 5.500 h
  %FPE probe fluorescence: 6.587% and 5.102% and 7.881% and 3.568%
Time 5.750 h
  %FPE probe fluorescence: 6.453% and 4.461% and 7.648% and 5.604%
Time 6.000 h
  %FPE probe fluorescence: 4.737% and 6.705% and 8.837% and 3.939%

From PMC9226319, “Peripherally restricted transthyretin-based delivery system for probes and therapeutics avoiding opioid-related side effects” (Nature Communications, 2022)
